Data on 112 compounds can be found in the RepoRT retention time repository.

The series can be described thus: Agilent ZORBAX 300 SB-C18, 150 × 1 mm, 3.5 µm; A: water + 0.01% heptafluorobutyric acid; B: acetonitrile + 0.01% heptafluorobutyric acid; gradient (min/%B) 0/0 100/90. The conditions noted are these: stereoisomer not certain.
In the case of `CC(C)(C)c1ccc(-c2nc(NCc3cccnc3)c3ccccc3n2)cc1`, the LC retention time worked out at 10.9 min. To `CNCCN` belongs 6.51 min. Take `CCOC(=O)CN1C(=O)N(C)Cc2ccccc21`: the LC retention time is 11.4 min. To `CN1CCNCC1` belongs 6.48 min; to `COc1cccc2c1NC(CCc1ccccc1N)CC2` (configuration not stated), 12.1 min.

As to `Cc1[nH]c2c(c1C)C(=O)CCC2`, the LC retention time was 8.94 min.

Turning to `COc1cc(N2C=C3N=C(c4ccccc4)NN3C=N2)cc(OC)c1OC`, the LC retention time came to 12.1 min.

For the compound `Cc1cc(C)c(N)c(C(=O)O)c1`, the LC retention time turned out to be 10.4 min. For the compound `O=S(=O)(O)CCNC1CCCCC1`, the LC retention time amounted to 5.78 min.

On to `c1ccc2ncncc2c1`, for which the LC retention time is 7.73 min. Regarding `COc1ccc(N2CC(C(=O)Nc3c(C)cc(C)cc3C)CC2=O)cc1` (configuration not stated), the LC retention time was determined as 12.5 min. With `O=C(C=Cc1ccco1)C1CC1`, the LC retention time was determined as 12.1 min. To `CN(C)NC1=CC(=O)CC(c2ccccc2)C1` (configuration not stated) belongs 10.4 min. For the compound `Cc1cc(N)c2ccccc2[n+]1CCCCCCCCCC[n+]1c(C)cc(N)c2ccccc21`, the LC retention time was 10.7 min. For the compound `Cc1ccc2cc(-c3ccncc3)[nH]c2c1`, the LC retention time is 10.2 min. The value for `C=CCC1(C(C)C)C(=O)NC(=O)NC1=O` was 9.74 min; that for `CC(C)c1ccc(N)cc1` was 9 min.

Turning to `COc1ccccc1CC(=O)Nc1cccc(C)c1`, the LC retention time came out at 13.9 min. With `COc1ccc2nc(C)c3c(c2c1)OC(C)C3` (configuration not stated), the LC retention time came to 9.25 min. The value for `c1ccc2c(c1)[nH]c1ccccc12` was 14.6 min; that for `c1ccc(-n2cnnn2)cc1` was 9.44 min.

Turning to `CCOC(=O)C1CCC(=O)N1` (configuration not stated), the LC retention time was found to be 6.88 min. Regarding `Cc1cc(C)c(CO)cc1C=NNC(N)=O`, the LC retention time was 8.66 min. The value for `CC(C)=C(NC(=O)c1ccccc1)C(=O)NCCc1c(C)[nH]c2ccccc12` was 12.3 min; that for `O=C1OCc2cc(-n3cccc3)ccc21` was 11.8 min.

As for `CC(C)(C)NCC(O)COc1cccc2c1CCC(=O)N2` (configuration not stated), the LC retention time was found to be 8.4 min. The value for `Cc1cc(N)c(N)cc1C` was 7.98 min; that for `COc1ccc(N(C)C(=O)c2cccc(C(=O)N(C)c3ccc(OC)cc3)c2)cc1` was 12.6 min; that for `Cc1cccc(C)n1` was 6.46 min. The value for `CNC(=S)NNC(=O)Cc1cccc2ccccc12` was 10.3 min; that for `O=S(=O)(O)c1ccc(Nc2ccccc2)cc1` was 7.25 min.

Turning to `CN(Cc1ccccc1)C(=O)c1ccco1`, the LC retention time worked out at 11.8 min.

Consider `C#Cc1cncn1C`, for which the LC retention time was found to be 6.39 min. The value for `CNC(=S)C(=S)NC` was 7.06 min; that for `CC(C)CC(N)C(N)=O` (configuration not stated) was 6.71 min.

As to `Cc1ccc(NC2=NCC(C)S2)cc1C` (configuration not stated), the LC retention time amounted to 9.88 min. To `CC(=O)NC(NC(C)=O)C(O)C(O)C(O)C(O)CO` (configuration not stated) belongs 1.55 min; to `CN(C)CCCN1c2ccccc2CCc2ccccc21`, 11.6 min. To `CN(C)C=CC=O` belongs 5.98 min.

As for `Cc1ccc(CNC(C)(C)C)s1`, the LC retention time came to 8.46 min. Regarding `NCCCCCCCCCCN`, the LC retention time turned out to be 7.57 min. To `Nc1ccc(NC(=O)Nc2ccc(N)cc2)cc1` belongs 7.24 min; to `Cc1cc(C)nc(NC(N)=NCCC(C)C)n1`, 10.3 min. The value for `CCOC(=O)c1ccc(NC(=O)C2CC(=O)N(C3CCCCC3)C2)cc1` (configuration not stated) was 13.2 min. The value for `Cc1[nH]c2ccccc2c1CCNC(=O)CN1C(=O)c2ccccc2C1=O` was 12.4 min; that for `OCC1Cc2ccccc2CN1` (configuration not stated) was 7.39 min; that for `Cc1ccc(C2C3=C(CC(C)(C)CC3=O)NC3=C2C(=O)CC(C)(C)C3)cc1` was 13.2 min. Turning to `Cc1nc2c(ccc3[nH]c(C)nc32)[nH]1`, the LC retention time turned out to be 7.32 min. To `O=C(NCCc1ccco1)c1cccc2c1oc1ccccc12` belongs 15.7 min. The value for `CN(C)c1ccncc1` was 7.29 min; that for `CCCCn1ccnc1` was 7.5 min. To `COc1ccc(C=NNC(N)=O)c(OC)c1` belongs 9.56 min; to `CCc1nc2ccccc2[nH]1`, 7.88 min; to `COC(=O)c1ccc2ccccc2n1`, 10.4 min. With `Nc1ccc2ncc(=O)[nH]c2c1`, the LC retention time was 6.59 min. Take `Nc1c2c(nc3ccccc13)N(C1CCCCC1)CC2`: the LC retention time worked out at 10.9 min. The value for `C[N+](C)(C)CCOP(=O)(O)OP(=O)(O)OCC1OC(n2ccc(N)nc2=O)C(O)C1O` (configuration not stated) was 1.63 min; that for `c1ccc(CCNc2ccncn2)nc1` was 7.03 min; that for `CCc1ccc(C2Nc3ccccc3C(=O)N2c2ccc(N(C)C)cc2)cc1` (configuration not stated) was 13.7 min. To `Cc1ccnc(=O)[nH]1` belongs 2.97 min; to `CC(C)(C)c1ccc(C(=O)NC(CC(=O)O)c2ccc(C(C)(C)C)cc2)cc1` (configuration not stated), 16.7 min; to `Cn1c(C2CCCCC2)nc2ccccc21`, 9.55 min. To `CCCCN1CNC(=S)NC1` belongs 7.45 min; to `NCCCNCCN`, 7.42 min; to `Nc1cccc(C(=O)O)c1N`, 10.6 min. For `CN(CCc1ccccn1)Cc1ccccn1`, the LC retention time turned out to be 7.79 min.

Regarding `Nc1ccc2c(c1)oc1ccccc12`, the LC retention time amounted to 11.6 min. To `COc1cc(C(=O)Nc2ccc(N3CCCC3=O)cc2)cc(OC)c1OC` belongs 10.8 min; to `Cn1c2nc(=O)[nH]c(=O)c-2nc2ccccc21`, 8.38 min; to `CCc1ccc(NCCC(=O)c2ccc(C(C)(C)C)cc2)cc1`, 16.5 min. The value for `O=C(CN1CCc2ccccc2C1)NC1CCCC1` was 8.99 min; that for `O=S(=O)(O)CCCN1CCOCC1` was 1.67 min; that for `Cc1cc(C(=O)N2CCCCC2)c2c(=O)n(CC(=O)Nc3ccccc3)c(=O)n(-c3ccccc3)c2n1` was 13.5 min. The value for `O=C(c1ccc(CN2CCc3ccccc3C2)cc1)N(Cc1ccccc1)Cc1ccccc1` was 12.5 min; that for `Cn1c(=O)[nH]cc(CC(=O)O)c1=O` was 5.4 min. Consider `CN(C)CCOC(C)(c1ccccc1)c1ccccn1` (configuration not stated), for which the LC retention time stood at 8.98 min. As to `CC1CCC(c2cn(C)c3ccccc23)C(=O)C1` (configuration not stated), the LC retention time is 15.7 min. To `Cn1cc(C(=O)O)c2ccccc21` belongs 9.81 min; to `Cc1nc2ccc(NC(=S)N(C)C)cc2nc1C`, 8.82 min. To `O=C(NCCN1CCN(Cc2ccccc2)CC1)C(=O)Nc1ccccc1` belongs 9.75 min; to `Cc1ccc(C(=O)NCc2ccco2)c(C)c1`, 12.3 min; to `O=C(NCCc1ccc2oc3ccccc3c2c1)C1CCCCC1`, 16.3 min. To `Cc1ccsc1CNC(C)c1ccccc1` (configuration not stated) belongs 9.76 min.

Regarding `C(=Cc1cccs1)c1ccccn1`, the LC retention time amounted to 9.18 min. To `CC(C)NCCO` belongs 5.44 min; to `COc1cc(C(=O)Nc2ccc(OCC(N)=O)cc2)cc(OC)c1OC`, 9.54 min; to `NCc1nccc2ccccc12`, 7.87 min. The value for `CCCCSCCSC(=N)N` was 9.27 min; that for `c1cc(-c2noc(-c3cnccn3)n2)ccn1` was 8.8 min.

For `Cc1nc2ccccc2nc1C=O`, the LC retention time was 10.9 min. The value for `O=C(O)c1cc(-c2ccncc2)nc2ccccc12` was 8.16 min; that for `O=C(NN=CC=NNC(=O)c1ccccn1)c1ccccn1` was 8.62 min; that for `O=c1cnc(-c2ccccc2)c(-c2ccccc2)[nH]1` was 11.1 min. As for `O=C(CCN1C(=O)c2ccccc2C1=O)NCc1ccco1`, the LC retention time is 10.2 min. To `O=C(O)c1ccc2c(c1)C1C=CCC1C(c1cccc3ccccc13)N2` (configuration not stated) belongs 16.1 min. The value for `CC1CCN(C(=O)C2CCCNC2)CC1` (configuration not stated) was 8.27 min; that for `Cc1[nH]c(=S)[nH]c1CC(C)C` was 9.02 min. Take `CCOC(=O)C1=C(C(=O)OC)CN(c2ccccc2)N1`: the LC retention time stood at 13.7 min.

For `CC1(C)CC(=O)c2cc3c(nc2C1)CC(C)(C)CC3=O`, the LC retention time turned out to be 13.2 min.

Take `CC1CC(C)(C)Nc2c(O)cccc21` (configuration not stated): the LC retention time worked out at 8.99 min. The value for `Cc1ccc(C)c2c1ccn2C` was 15.8 min; that for `COc1c(C)cccc1C(=O)NN` was 8.52 min. In the case of `S=C1N=C2CCCC2C2(CCCC2)N1` (configuration not stated), the LC retention time turned out to be 8.95 min.

On to `CCCCCCCC(N)=O`, for which the LC retention time was found to be 11 min.

Take `CC(C(=O)c1ccccc1)[n+]1ccccc1` (configuration not stated): the LC retention time was determined as 8.43 min. Take `NCCc1csc2c1CCCC2`: the LC retention time worked out at 9.41 min.

In the case of `CCCCN1CCCCC1C(=O)Nc1c(C)cccc1C` (configuration not stated), the LC retention time came out at 10.5 min.

Turning to `CCN(CC)c1ccc(CCN)cc1`, the LC retention time was 8.39 min.

Take `CNCCCC12CCC(c3ccccc31)c1ccccc12`: the LC retention time is 11.7 min. In the case of `C[n+]1cccc(C(=O)O)c1`, the LC retention time worked out at 1.49 min. To `c1ccc(-c2cc3cc4c(cc3[nH]2)OCO4)cc1` belongs 15.1 min; to `NCc1ccccc1CN`, 7.03 min.
